Data set [1] is described as follows: Stability of a formulation comprising the disodium salt after storage at 25° C., HPLC (Example 2). The data set is classed as physicochemical. On the procedure: The stability of a formulation comprising the disodium salt of 4-(((R)-1-carboxy-2-(((2E,6E)-3,7,11-trimethyldodeca-2,6,10-trien-1-yl)thio)ethyl)amino)-4-oxobutanoic acid was determined after storage at 25° C. for a period of 4 months, 6 months, 9 months and 12 months. […]

Data set [2] can be described thus: Stability of a formulation comprising the disodium salt after storage at 5° C., HPLC (Example 3). The data set is classed as physicochemical. The protocol:
The stability of a formulation comprising the disodium salt of 4-(((R)-1-carboxy-2-(((2E,6E)-3,7,11-trimethyldodeca-2,6,10-trien-1-yl)thio)ethyl)amino)-4-oxobutanoic acid was determined after storage at 5° C. for a period of 1 month, 2 months, 3 months, 6 months, 9 months, 12 months, 18 months, and 24 months. In each case, the percentage of 4-(((R)-1-carboxy-2-(((2E,6E)-3,7,11-trimethyldodeca-2,6,10-trien-1-yl)thio)ethyl)amino)-4-oxobutanoic acid remaining at each time point was determined by use of HPLC. Each of the percentages in the table below are expressed at the weight percentage of the component as compared to the total weight of the composition.

With `CC(C)=CCC/C(C)=C/CC/C(C)=C/CSC[C@H](NC(=O)CCC(=O)O)C(=O)O` [4-(((R)-1-carboxy-2-(((2E,6E)-3,7,11-trimethyldodeca-2,6,10-trien-1-yl)thio)ethyl)amino)-4-oxobutanoic acid], the “% age of sulfoxide of 4-(((R)-1-carboxy-2-(((2E,6E)-3,7,11-trimethyldodeca-2,6,10-trien-1-yl)thio)ethyl)amino)-4-oxobutanoic acid” value is 0.037% in data set [1] (Initial); 0.031% in data set [1] (after 1 month, storage at 25° C.); 0.113% in data set [1] (after 3 months, storage at 25° C.); 0.053% in data set [1] (after 6 months, storage at 25° C.); 0.134% in data set [1] (after 9 months, storage at 25° C.).
In the case of `COC(=O)c1ccc(O)cc1` [Methylparaben], the “weight percentage of the component as compared to the total weight of the composition” value (from here on “weight percentage of the component”) was 0.17 weight percentage in data set [2] (1 month, storage at 5° C.); 0.17 weight percentage in data set [2] (2 months, storage at 5° C.); 0.17 weight percentage in data set [2] (3 months, storage at 5° C.); 0.18 weight percentage in data set [2] (6 months, storage at 5° C.); 0.17 weight percentage in data set [2] (9 months, storage at 5° C.); 0.17 weight percentage in data set [2] (12 months, storage at 5° C.). Moreover, the “weight percentage of the component” value in data set [2] (18 months, storage at 5° C.) was determined as 0.17 weight percentage; in data set [2] (24 months, storage at 5° C.), 0.15 weight percentage; in data set [2] (Initial), 0.17 weight percentage.
Consider `CCCOC(=O)c1ccc(O)cc1` [Propylparaben], for which the “weight percentage of the component” value in data set [2] (1 month, storage at 5° C.) turned out to be 0.032 weight percentage; in data set [2] (2 months, storage at 5° C.), 0.032 weight percentage; in data set [2] (3 months, storage at 5° C.), 0.033 weight percentage; in data set [2] (6 months, storage at 5° C.), 0.032 weight percentage; in data set [2] (9 months, storage at 5° C.), 0.033 weight percentage; in data set [2] (12 months, storage at 5° C.), 0.032 weight percentage. In addition, the “weight percentage of the component” value in data set [2] (18 months, storage at 5° C.) is given as 0.033 weight percentage; in data set [2] (24 months, storage at 5° C.), 0.030 weight percentage; in data set [2] (Initial), 0.034 weight percentage.

Values taken from patent publication US20190167619A1, “PHARMACEUTICAL FORMULATIONS AND THEIR USE” (SIGNUM BIOSCIENCES, INC., priority 2016, published 2019).
